The text below walks through data of patent US8729074B2, “Inhibitors of PI3 kinase” (Amgen Inc., priority 2009, dated 2014).

pIC50, pKi: −log10 of the molar value.

Test [1] deals with T1, PI3Kα (Homo sapiens (Human), UniProt P42336). The experiment in a line: In vitro PI3K AlphaScreen assay. It is filed as biochemical. The note with it: average if run more than once. Here is the method:
In Vitro PI3K AlphaScreen® Assay
The PI3K AlphaScreen® assay (PerkinElmer, Waltham, Mass.) measures the activity of a panel of four phosphoinositide 3-kinases: PI3Kα, PI3Kβ, PI3Kγ, and PI3Kδ. Each of these enzymes phosphorylates the 3′-hydroxyl group on phosphatidylinositiol (4,5)-bisphosphate (PIP2) to produce phosphatidylinositol (3,4,5)-trisphosphate (PIP3). This phosphorylation activity is measured using a GST-tagged PIP3 binding protein (Echelon Biosciences, Salt Lake City, Utah), an anti-GST-tagged Acceptor bead, and streptavidin-Donor bead. […] In the absence of this interaction, proximity of the Donor and Acceptor beads is decreased, producing a loss of luminescent signal which is inversely proportional to PI3K activity.
The enzyme reaction buffer is made using sterile water (Baxter, Deerfield, Ill.) and 50 mM Tris HCl pH 7, 14 mM MgCl2, 2 mM sodium cholate, and 100 mM NaCl. 2 mM DTT is added fresh the day of the experiment. The AlphaScreen® reaction buffer is made using sterile water and 10 mM Tris HCl pH 7.5, 150 mM NaCl, 0.10% Tween 20, and 30 mM EDTA. 1 mM DTT is added fresh the day of the experiment.
The source plates for this assay are 384-well Greiner clear polypropylene plates containing test compounds at 5 mM and diluted 1:2 over 22 points. Columns 23 and 24 contain only DMSO as these are designated for positive and negative controls. Source plates are replicated into 384-well Optiplates (PerkinElmer, Waltham, Mass.), 0.5 μL/well, to make assay-ready plates.
The different PI3K isoforms are each diluted in enzyme reaction buffer to 2× working solutions. […] Two different 2× substrate solutions are made in enzyme reaction buffer. In one solution, PI(4,5)P2 (Echelon Biosciences, Salt Lake City, Utah) is diluted to 10 μM and ATP is diluted to 20 μM. This solution is used in the assays testing PI3Kα and PI3Kβ. In a second solution, PI(4,5)P2 is diluted to 10 μM and ATP is diluted to 8 μM. This solution is used in the assays testing PI3Kγ and PI3Kδ.
The AlphaScreen® reaction solutions are made using beads from the anti-GST AlphaScreen® kit (PerkinElmer, Waltham, Mass.). Two solutions are made in Alphascreen reaction buffer to 4× working concentrations. In one solution, biotinylated-IP4 (Echelon Biosciences, Salt Lake City, Utah) is diluted to 40 nM and streptavadin-Donor Beads are diluted to 80 μg/mL. In the second solution, PIP3-binding protein (Echelon Biosciences, Salt Lake City, Utah) is diluted to 40 nM and anti-GST-Acceptor Beads are diluted to 80 μg/mL. 10 μL/well of enzyme reaction buffer is added to Column 24 of the assay ready plates in place of enzyme. This is done for plates in the PI3Kα, β, and δ assays.
Using a 384-well dispensing Multidrop (Titertek, Huntsville, Ala.), 10 μL/well of 2× enzyme (PI3Kα, β, δ) is added to Columns 1-23 of the appropriate assay ready plates (for PI3Kγ 10 μL is added to Columns 1-24). 10 μL/well of the appropriate substrate solution (the solution with 20 μM ATP for PI3Kα and β assays, and the solution with […] for PI3Kγ and δ assays) is then added to Columns 1-24 of the plates. Plates are then incubated at room temperature for 20 minutes.
In the dark, 10 μL/well of the Donor Bead solution is added to Columns 1-24 of the plates to quench the enzyme reaction. The plates are incubated at room temperature for 30 minutes. Still in the dark, 10 μL/well of the Acceptor Bead solution is also added to Columns 1-24 of the plates. The plates are then incubated in the dark for 1.5 hours. The plates are read on an Envision Multilabel Plate Reader (PerkinElmer, Waltham, Mass.) with a 680 nm excitation filter and a 520-620 nm emission filter.
Activity data for the compounds tested in the assay is provided in Table 1 under the column heading PI3Kα AlphaScreen®.

Test [2] has as its target T1, PI3Kα. Put plainly: In vitro PI3 kinase enzyme assay (PI3K ATPLoss). In kind it is biochemical. The settings on record: average if run more than once. Here is the method:
Recombinant Expression of PI3K Enzymes
Full length p110 subunits of PI3K α, β and δ, N-terminally labeled with polyHis tag, can be co-expressed with p85 with Baculo virus expression vectors in sf9 insect cells. P110/p85 heterodimers can be purified by sequential Ni-NTA, Q-HP, Superdex-100 chromatography. Purified α, β and δ isozymes can be stored at −20° C. in 20 mM Tris, pH 8, 0.2M NaCl, 50% glycerol, 5 mM DTT, 2 mM Na cholate. […] The γ isozyme can be purified by sequential Ni-NTA, Superdex-200, Q-HP chromatography. The γ isozyme can be stored frozen at −80° C. in NaH2PO4, pH 8, 0.2M NaCl, 1% ethylene glycol, 2 mM β-mercaptoethanol.
In Vitro PI3 Kinase Enzyme Assays (PI3K ATPLoss)
PI3K enzyme assays (alpha, beta, delta and gamma) can be performed in 25 μL with the above final concentrations of components in white polyproplyene plates. Phosphatidyl inositol phosphoacceptor, PtdIns(4,5)P2 (e.g., P4508) can be obtained from Echelon Biosciences, Salt Lake City, Utah. […] Test compounds can be dissolved in DMSO and diluted with three-fold serial dilutions. The compound in DMSO (1 μL) may be added per test well, and the inhibition relative to reactions containing no compound, with and without enzyme can be determined. After assay incubation at RT, the reaction can be stopped and residual ATP can be determined by addition of an equal volume of a commercial ATP bioluminescence kit (Perkin Elmer EasyLite, Perkin Elmer, Waltham, Mass.) according to the manufacturer's instructions, and detected using an Analyst GT luminometer.

Test [3] deals with phosphorylation of Akt at Serine 473 in U87 MG cells. Put plainly: pAkt AlphaScreen (U87 cell). In kind it is cell-based. The settings on record: Homo sapiens, U-87 MG, 2 h; pAkt Ser473, U87 MG cells, compound two hours; average if run more than once. The protocol: pAkt AlphaScreen (U87 Cell)
The pAkt AlphaScreen® assay (PerkinElmer, Waltham, Mass.) determines whether there is phosphorylation of Akt at Serine 473 by recruitment of a phosphospecific antibody. This assay was performed using U87 MG cells. The U87 growth media consists of MEM (Gibco, Carlsbad, Calif.) supplemented with 10% FBS (Gibco), 1× Non-Essential Amino Acids (Gibco) and 1× Penicillin/Streptomycin/Glutamine (Gibco). The cells were maintained weekly using 0.05% Trypsin (Gibco) and replated in 150 mm TC—Treated Culture Dishes (Corning, Corning, N.Y.).
The first day of the assay, the adherent cells were trypsinized, media was added to the loose cells and cells were mixed to a homogenous mixture. 0.5 ml of the homogenous mixture was counted on the Beckman Coulter® Vi-CELL™ XR (Fullerton, Calif.). 50 frames of cells were counted and the number of viable cells was determined. The cells were then diluted to 0.25 million cells per ml, and centrifuged at 200 rcf for 5 minutes. The media was removed and the cells were reconstituted in fresh media for plating. The cells were plated at 20 μl per well on the PerkinElmer® Flexprop PLUS in Low Volume 384 Well White Tissue Culture Plates (Corning) with a final cell density of 5K cells per well. The plates were incubated overnight at 37° Celsius, 5% CO2.
On the second day, the compound plates were prepared, the cells were treated with compound and the pAkt reaction mix was added to the cell lysate. 384 well compound plates were prepared containing 1 μl of compound per well starting at 5 mM and diluted 1:2 across the row, resulting in a 22 well serial dilution. 39 μl of growth media was added to the compound plate in rows 1-22 using the PerkinElmer® Flexprop PLUS resulting in a DMSO concentration of 2.5%. The cell plates and diluted compound plates were put onto the VELOCITY11™ VPREP™ 384 ST where the compound plate was mixed and 5 μl of serially diluted compound or controls was added to the cell plate. The final concentration of the compounds was 25 μM serially diluted to 11.9 pM in 0.5% DMSO. The cell plates were then incubated with compound for two hours at 37° Celsius, 5% CO2. After two hours, the media in the cell plates was aspirated using the BioTek® ELx405HT plate washer (Winooski, Vt.) removing the majority of media and compound without disturbing the adherent U87 cells. The following assay reagents are components of the SureFire® Akt (Ser 473) Phosphorylation 50K Point Kit (TGR BioSciences, Adelaide, Australia) and an IgG Detection Kit (PerkinElmer, Waltham, Mass.). 5 μl of 1× Lysis Buffer was added to each well using the PerkinElmer® Flexprop PLUS. The plates were then incubated at room temperature on a shaker for ten minutes. The AlphaScreen® reaction was prepared under low light conditions (subdued or green light) including p-Akt (Ser 473) Reaction Buffer, Dilution Buffer, Activation Buffer, Acceptor Beads and Donor Beads at a ratio of 40:20:10:1:1 respectively. The AlphaScreen® reaction was added to the cell lysate at 6 μl per well using the PerkinElmer® Flexprop PLUS. The plates were placed in a humid environment to reduce edge effects and incubated overnight at room temperature with restricted air flow in the dark.
On the final day of the experiment, the plates were read on the PerkinElmer® EnVision™ 2103 Multilable Reader using the standard AlphaScreen® readout. The POC is calculated and the data is analyzed to report the IC50 IP for pAkt at Serine 473.
Activity data for the compounds tested in the PI3K cell based Akt assay is provided in Table 1 under the column heading U87
(In general: Bead proximity is the source of the signal in Alpha formats.)

The next test concerns the target mTOR (Homo sapiens (Human), UniProt P42345). Put plainly: In vitro mTOR Lanthascreen assay. The note with it: average if run more than once. In kind it is biochemical. From the text:
The Invitrogen (Carlsbad, Calif.) mammalian target of rapamycin (mTOR) Lanthascreen assay can be used to quantitate mTOR kinase activity in an in vitro setting. Active mTOR phosphorylates eukaryotic translation initiation factor 4E binding protein 1 (4E-BP1) on residue threonine 46. This phosphorylation event can be detected with a phospho-specific terbium (Tb) labeled Ab, in turn bringing the Tb label in close proximity to the GFP tagged 4E-BP 1 and allowing for time-resolved fluorescence resonance energy transfer (TR-FRET), which correlates 4E-BP1 phosphorylation levels with mTOR kinase activity.
Enzyme reaction buffer can be prepared in deionized water containing 50 mM HEPES (pH 7.5), 0.01% Polysorbate 20, 1 mM EGTA, and 10 mM MnCl2.
Dilutions of the compound to be tested can be prepared in 96-well polypropylene plates (Fisher Scientific, Waltham, Mass.). One row represents a 10-point dose of compound diluted 1:3 in enzyme reaction buffer and 20% dimethyl sulfoxide (DMSO). The top concentration for all compounds is 36 μM. Wells 6 and 12 can serve as the no compound (DMSO only) and high compound controls.
An mTOR substrate solution can prepared in enzyme reaction buffer containing 1600 nM green fluorescent protein tagged eukaryotic translation initiation factor 4E binding protein 1 (GFP-4E-BP1) (Invitrogen, Carlsbad, Calif.) and 28 uM adenosine triphosphate (ATP) (Calbiochem, Gibbstown, N.J.).
mTOR enzyme (Invitrogen, Carlsbad, Calif.) can be diluted in enzyme reaction buffer to a working concentration of 100 ng/mL.
The enzyme assay can be run in 384 well low volume assay plates (Corning, Corning, N.Y.). 2.5 uL of substrate solution containing GFP-4E-BP1 and ATP can be added to appropriate wells in the assay plate followed by 2.5 μL of compound dilutions. 5 μL of appropriately diluted mTOR enzyme can be added and the reaction allowed to proceed for 1 hour at room temperature. Final reagent concentrations in the enzyme assay are 50 ng/mL mTOR, 400 nM GFP-4E-BP1, and 7 μM ATP.
The enzyme assay can be terminated upon the addition of 10 μL of 20 mM EDTA and 4 nM Tb-labeled anti-phospho-4E-BP1 [T46] antibody (Invitrogen, Carlsbad, Calif.). The assay plate can then be incubated at room temperature for 1 hour and results read on a Tecan Safire II plate reader (Tecan, Männedorf, Switzerland).
In general terms: Time-resolved FRET reads energy transfer from a long-lived donor to a nearby acceptor.

T1 sequence (P42336 whole entry): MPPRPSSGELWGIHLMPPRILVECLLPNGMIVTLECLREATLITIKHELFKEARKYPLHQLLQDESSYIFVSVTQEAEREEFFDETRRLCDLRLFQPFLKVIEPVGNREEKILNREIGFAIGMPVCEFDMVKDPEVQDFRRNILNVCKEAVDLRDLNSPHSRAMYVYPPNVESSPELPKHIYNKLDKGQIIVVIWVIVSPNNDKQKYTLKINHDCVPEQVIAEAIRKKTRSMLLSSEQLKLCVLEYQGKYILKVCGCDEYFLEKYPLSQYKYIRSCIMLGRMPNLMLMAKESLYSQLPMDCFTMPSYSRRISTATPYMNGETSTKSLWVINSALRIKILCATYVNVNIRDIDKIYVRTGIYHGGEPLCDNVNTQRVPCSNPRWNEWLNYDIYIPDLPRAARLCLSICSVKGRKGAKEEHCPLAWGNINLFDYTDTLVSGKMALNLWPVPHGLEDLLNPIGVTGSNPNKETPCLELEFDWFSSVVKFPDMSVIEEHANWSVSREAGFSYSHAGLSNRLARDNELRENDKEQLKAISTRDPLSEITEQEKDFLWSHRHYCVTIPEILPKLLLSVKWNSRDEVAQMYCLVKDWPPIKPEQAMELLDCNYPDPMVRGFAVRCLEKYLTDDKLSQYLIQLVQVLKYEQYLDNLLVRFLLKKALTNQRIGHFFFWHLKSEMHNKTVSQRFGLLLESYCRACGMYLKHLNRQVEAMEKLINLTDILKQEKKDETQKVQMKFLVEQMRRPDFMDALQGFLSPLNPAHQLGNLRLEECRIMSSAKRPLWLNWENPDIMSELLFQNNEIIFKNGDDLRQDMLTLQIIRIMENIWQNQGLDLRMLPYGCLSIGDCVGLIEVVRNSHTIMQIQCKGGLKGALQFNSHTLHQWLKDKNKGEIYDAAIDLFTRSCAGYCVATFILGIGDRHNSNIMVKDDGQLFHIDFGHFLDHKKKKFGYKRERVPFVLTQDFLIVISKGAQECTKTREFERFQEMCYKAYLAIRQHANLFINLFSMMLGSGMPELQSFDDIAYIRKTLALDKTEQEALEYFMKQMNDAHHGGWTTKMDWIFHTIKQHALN
T1 sequence (P27986 whole entry partner): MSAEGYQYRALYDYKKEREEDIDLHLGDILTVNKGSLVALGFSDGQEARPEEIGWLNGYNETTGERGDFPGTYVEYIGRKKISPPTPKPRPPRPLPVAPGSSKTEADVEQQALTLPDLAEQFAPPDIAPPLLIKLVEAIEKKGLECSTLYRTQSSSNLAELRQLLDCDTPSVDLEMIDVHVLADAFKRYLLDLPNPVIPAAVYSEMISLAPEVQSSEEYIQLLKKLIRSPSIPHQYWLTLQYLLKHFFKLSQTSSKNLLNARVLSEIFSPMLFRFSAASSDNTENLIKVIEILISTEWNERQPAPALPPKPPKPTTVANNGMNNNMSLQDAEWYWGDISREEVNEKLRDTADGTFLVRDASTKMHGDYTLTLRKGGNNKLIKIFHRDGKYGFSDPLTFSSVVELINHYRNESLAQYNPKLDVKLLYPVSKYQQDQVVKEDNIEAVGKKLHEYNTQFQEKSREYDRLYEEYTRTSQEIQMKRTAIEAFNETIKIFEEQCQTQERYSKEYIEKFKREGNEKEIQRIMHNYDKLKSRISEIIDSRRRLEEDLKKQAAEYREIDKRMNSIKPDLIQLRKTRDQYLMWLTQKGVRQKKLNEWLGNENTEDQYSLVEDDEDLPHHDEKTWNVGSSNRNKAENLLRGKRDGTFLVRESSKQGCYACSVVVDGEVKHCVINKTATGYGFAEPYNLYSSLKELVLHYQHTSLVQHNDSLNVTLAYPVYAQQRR
Sequence of mTOR (P42345 1360-2549): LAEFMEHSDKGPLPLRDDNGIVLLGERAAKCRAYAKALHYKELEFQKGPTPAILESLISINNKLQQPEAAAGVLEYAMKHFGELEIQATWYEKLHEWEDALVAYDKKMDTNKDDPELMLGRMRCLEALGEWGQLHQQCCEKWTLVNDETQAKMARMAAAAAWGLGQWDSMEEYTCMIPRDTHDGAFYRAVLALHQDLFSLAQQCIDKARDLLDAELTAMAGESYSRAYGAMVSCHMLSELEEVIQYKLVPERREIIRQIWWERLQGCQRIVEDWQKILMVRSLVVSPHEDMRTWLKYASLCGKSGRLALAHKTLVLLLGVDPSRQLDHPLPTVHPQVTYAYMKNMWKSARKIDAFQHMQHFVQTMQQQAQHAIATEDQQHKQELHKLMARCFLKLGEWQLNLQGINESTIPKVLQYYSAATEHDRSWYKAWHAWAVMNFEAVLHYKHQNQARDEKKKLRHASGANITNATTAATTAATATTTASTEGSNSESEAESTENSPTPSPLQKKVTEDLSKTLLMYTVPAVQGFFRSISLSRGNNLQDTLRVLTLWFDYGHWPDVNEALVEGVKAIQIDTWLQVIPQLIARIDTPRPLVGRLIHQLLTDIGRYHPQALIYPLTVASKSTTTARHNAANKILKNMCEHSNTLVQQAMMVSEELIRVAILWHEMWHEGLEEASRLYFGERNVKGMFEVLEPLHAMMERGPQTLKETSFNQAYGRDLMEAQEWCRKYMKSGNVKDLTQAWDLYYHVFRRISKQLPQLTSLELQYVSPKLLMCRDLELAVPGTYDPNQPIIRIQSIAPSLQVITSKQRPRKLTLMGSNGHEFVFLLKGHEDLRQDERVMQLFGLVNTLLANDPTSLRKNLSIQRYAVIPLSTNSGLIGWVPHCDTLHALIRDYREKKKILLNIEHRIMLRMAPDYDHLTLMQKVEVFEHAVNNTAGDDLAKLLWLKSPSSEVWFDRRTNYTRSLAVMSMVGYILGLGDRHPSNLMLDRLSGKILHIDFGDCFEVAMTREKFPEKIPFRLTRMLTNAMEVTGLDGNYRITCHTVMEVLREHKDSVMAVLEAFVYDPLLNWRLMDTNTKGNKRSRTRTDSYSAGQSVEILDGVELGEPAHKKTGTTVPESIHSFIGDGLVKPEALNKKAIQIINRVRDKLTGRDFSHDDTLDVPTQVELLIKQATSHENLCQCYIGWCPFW

What is called pKi is the negative decadic logarithm of the Ki, by convention in mol/L. By pIC50 is commonly meant the IC50 on a negative log10 scale, so that one unit is a factor of ten. As to `O=S(=O)(Nc1cncc(-c2cnc3ccccn23)c1)c1ccc(F)cc1` [Example 2, 4-Fluoro-N-(5-imidazo[1,2-a]pyridin-3-yl-3-pyridinyl)benzenesulfonamide], the negative-log Ki (pKi) at PI3Kα [1] is 5.89. In addition, on PI3Kα [2], the pIC50 was 6.03.
In turn, `COc1cc(-c2cnc3ccc(N4C(=O)OC[C@H]4Cc4ccccc4)cn23)cnc1OC` [Example 14, (4R)-4-Benzyl-3-(3-(5,6-dimethoxy-3-pyridinyl)imidazo[1,2-a]pyridin-6-yl)-1,3-oxazolidin-2-one] showed a pKi at PI3Kα [1] of 6.57. For the same compound, the pIC50 in test [3] was 5.16.
Take `COc1cc(-c2cnc3ccc(N4C(=O)OC[C@@H]4Cc4ccccc4)cn23)cnc1OC` [Example 15, (4S)-4-Benzyl-3-(3-(5,6-dimethoxy-3-pyridinyl)imidazo[1,2-a]pyridin-6-yl)-1,3-oxazolidin-2-one]: the pKi at PI3Kα [1] is 6.54. Further, the pIC50 in test [3] was 5.18.
`O=c1n(Cc2ccccc2)ccc2ncc(-c3cnc(Cl)c(NS(=O)(=O)c4ccc(F)cc4)c3)n12` [Example 17, N-(5-(6-Benzyl-5-oxo-5,6-dihydroimidazo[1,2-c]pyrimidin-3-yl)-2-chloropyridin-3-yl)-4-fluorobenzenesulfonamide] showed a pKi at PI3Kα [1] of 6.33. At mTOR, this compound showed a negative-log IC50 (pIC50) of 6.74.
`O=S(=O)(Nc1cc(-c2cnc3ncccn23)cnc1Cl)c1ccc(F)cc1` [Example 24, N-(2-Chloro-5-(imidazo[1,2-a]pyrimidin-3-yl)pyridin-3-yl)-4-fluorobenzenesulfonamide] showed a pKi on PI3Kα [1] of 6.42. Moreover, the pIC50 on PI3Kα [2] was 6.11; on mTOR, less than 4.30.
